# Experimental data from paper PMC4386948, “Artemether-lumefantrine co-administration with antiretrovirals: population pharmacokinetics and dosing implications” (British Journal of Clinical Pharmacology, 2014).
# Read-outs that look alike come from different tables or passages of the source.
# Experiments:
# [1] = Population pharmacokinetics of artemether/dihydroartemisinin alone and with efavirenz, nevirapine or lopinavir/ritonavir (non-linear mixed effects modelling of plasma concentrations); format: in vivo, human; conditions: for Vc/F, apparent volume of distribution of the central compartment, population estimate [RSE %] / CL/F, apparent elimination clearance, population estimate [RSE %]: HIV-infected adults, oral artemether-lumefantrine, plasma; for CL/F, apparent elimination clearance, population estimate [RSE %]: parent fully converted to metabolite; for exposure: nevirapine or lopinavir/ritonavir (all three antiretroviral drugs); for LOPCL/F, effect on elimination clearance by concomitant treatment with lopinavir/ritonavir: concomitant lopinavir/ritonavir 400/100 mg, positive = increase
# From the text: Study 1 was a parallel group study in HIV-infected patients. Inclusion criteria were age >18 years, informed written consent and a confirmed HIV diagnosis. Exclusion criteria were anaemia (haemoglobin levels below 8 g dl^-1), viral loads above 400 counts ml^-1, malaria parasitaemia, abnormal liver or renal function, pregnancy, the use of substances which inhibit or induce CYP enzymes or P-glycoprotein, use of herbal medicines, prolonged QT interval, or any intercurrent illness. Ethics approval was received from the Uganda National HIV/AIDS Research Committee (ARC 056) and the Uganda National Council of Science and Technology (HS 195) and the study was registered with http://ClinicalTrials.gov (NCT 00619944). Study 2 was a three period, crossover study in HIV-infected patients. Inclusion and exclusion criteria were the same as for study 1 (i.e. age >18 years, informed written consent and a confirmed HIV diagnosis) except that there were no restrictions based on viral load, and patients with hypersensitivity to artemisinins, lumefantrine or halofantrine or any history of cardiac disease were excluded from the study. Ethics approval was received from the Uganda National HIV/AIDS Research Committee (ARC 059) and from the Uganda National Council of Science and Technology (HS 196). The study was registered at http://ClinicalTrials.gov (NCT00620438). Patients in the first arm were treated with 400/100 mg of lopinavir/ritonavir (Aluvia®, Abbott Laboratories, Abbott Park, Illinois, USA) and two nucleoside reverse transcriptase inhibitors (zidovudine and didanosine or tenofovir and emtricitabine, regional non-controlled procurement). The drugs were taken twice daily for at least 1 month before the start of the study. Patients in the second arm had not yet started their HIV therapy. At the initiation of the study all patients received a single dose of 80 mg artemether and 480 mg lumefantrine (four tablets) (Coartem®, Novartis Pharma AG, Basel, Switzerland; Batch number: F0660). Venous plasma samples were drawn at 1, 2, 4, 6, 8, 12, 24, 48 and 72 h post-dose. At the start of the study, all patients received a standard treatment of artemether and lumefantrine (80/480 mg twice daily for 3 days; Coartem®). Plasma samples were collected after the last dose at 1, 2, 4, 8, 12, 24, 48, 72, 96 and 120 h post-dosing. […] Patients received HIV treatment alone for 1 month and then were given a standard six dose treatment of artemether and lumefantrine concomitantly. Plasma samples were again collected after the last artemether-lumefantrine dose. Artemether/dihydroartemisinin and lumefantrine were quantified in plasma samples according to previously published methods. Artemether and dihydroartemisinin were measured using solid phase extraction and liquid chromatography coupled with tandem mass spectrometric detection. The total coefficient of variation (%CV) was less than 6% and the lower limit of quantification was set to 1.4 ng ml^-1. Lumefantrine was measured using solid phase extraction followed by liquid chromatography with ultraviolet detection. The total coefficient of variation was below 6% and the lower limit of quantification was set to 25 ng ml^-1. Modelling and simulations were performed in NONMEM v7.12 (Icon Development Solutions, Ellicott City, Maryland, USA). Model discrimination was based on the objective function value (OFV) which is proportional to -2 times the log-likelihood of the data. […]2.6.0 was used to document the modelling process. R v2.14.2 (the R Foundation for Statistical Computing, Vienna, Austria) and the package Xpose v4.3.5 [43] was used to perform model diagnostics. Perl-speaks-NONMEM v3.5.3 was used for automation throughout the modelling process. Data below the limit of quantification were initially omitted or modelled as categorical data (M3-method), if necessary. […]
# [2] = cited from earlier work
# [3] = Population pharmacokinetics of lumefantrine/desbutyl-lumefantrine alone and with efavirenz, nevirapine or lopinavir/ritonavir (non-linear mixed effects modelling of plasma concentrations); format: in vivo, human; conditions: for CL/F, apparent elimination clearance, population estimate [RSE %]: parent fully converted to metabolite; for LOPCL/F, effect on elimination clearance by concomitant treatment with lopinavir/ritonavir: concomitant lopinavir/ritonavir 400/100 mg; for LOPCL/F, effect on elimination clearance by concomitant treatment with lopinavir/ritonavir / EFZCL/F, effect on elimination clearance by concomitant treatment with efavirenz: positive = increase; for EFZCL/F, effect on elimination clearance by concomitant treatment with efavirenz: concomitant efavirenz 600 mg
# From the text: Study 1 was a parallel group study in HIV-infected patients. Inclusion criteria were age >18 years, informed written consent and a confirmed HIV diagnosis. Exclusion criteria were anaemia (haemoglobin levels below 8 g dl^–1), viral loads above 400 counts ml^−1, malaria parasitaemia, abnormal liver or renal function, pregnancy, the use of substances which inhibit or induce CYP enzymes or P-glycoprotein, use of herbal medicines, prolonged QT interval, or any intercurrent illness. Ethics approval was received from the Uganda National HIV/AIDS Research Committee (ARC 056) and the Uganda National Council of Science and Technology (HS 195) and the study was registered with http://ClinicalTrials.gov (NCT 00619944).
# Study 2 was a three period, crossover study in HIV-infected patients. Inclusion and exclusion criteria were the same as for study 1 (i.e. age >18 years, informed written consent and a confirmed HIV diagnosis) except that there were no restrictions based on viral load, and patients with hypersensitivity to artemisinins, lumefantrine or halofantrine or any history of cardiac disease were excluded from the study. Ethics approval was received from the Uganda National HIV/AIDS Research Committee (ARC 059) and from the Uganda National Council of Science and Technology (HS 196). The study was registered at http://ClinicalTrials.gov (NCT00620438).
# Patients in the first arm were treated with 400/100 mg of lopinavir/ritonavir (Aluvia®, Abbott Laboratories, Abbott Park, Illinois, USA) and two nucleoside reverse transcriptase inhibitors (zidovudine and didanosine or tenofovir and emtricitabine, regional non-controlled procurement). The drugs were taken twice daily for at least 1 month before the start of the study. Patients in the second arm had not yet started their HIV therapy. At the initiation of the study all patients received a single dose of 80 mg artemether and 480 mg lumefantrine (four tablets) (Coartem®, Novartis Pharma AG, Basel, Switzerland; Batch number: F0660). Venous plasma samples were drawn at 1, 2, 4, 6, 8, 12, 24, 48 and 72 h post-dose.
# At the start of the study, all patients received a standard treatment of artemether and lumefantrine (80/480 mg twice daily for 3 days; Coartem®). Plasma samples were collected after the last dose at 1, 2, 4, 8, 12, 24, 48, 72, 96 and 120 h post-dosing. After 1 week of wash-out, patients started HIV treatment with either nevirapine (200 mg) or efavirenz (600 mg) combined with the nucleoside reverse transcriptase inhibitors zidovudine and lamivudine. Patients received HIV treatment alone for 1 month and then were given a standard six dose treatment of artemether and lumefantrine concomitantly. Plasma samples were again collected after the last artemether-lumefantrine dose.
# Artemether/dihydroartemisinin and lumefantrine were quantified in plasma samples according to previously published methods. Artemether and dihydroartemisinin were measured using solid phase extraction and liquid chromatography coupled with tandem mass spectrometric detection. […] Lumefantrine was measured using solid phase extraction followed by liquid chromatography with ultraviolet detection.
# Desbutyl-lumefantrine was measured using liquid chromatography (Model 1200 system, Agilent Technologies) coupled with tandem mass spectrometric detection (API5000 triple-quadrupole system, AB Sciex). Desbutyl-lumefantrine and its analogue internal standard (C28H28CL3NO [39]) were extracted from plasma samples (100 μl) by protein precipitation followed by phospholipid removal (Hybrid SPE-Precipitation 96-wellplate, 575656-U, Supelco).
# [4] = HIV-infected adults, oral artemether-lumefantrine, plasma
# [5] = concomitant lopinavir/ritonavir
# [6] = stated in methods, no reference given
compound,measurement,setting,value
CO[C@H]1O[C@@H]2O[C@@]3(C)CC[C@H]4[C@H](C)CC[C@@H]([C@H]1C)[C@@]24OO3 [artemether],"Vc/F, apparent volume of distribution of the central compartment, population estimate [RSE %]",[1],1090 [8.69] l
same,"CL/F, apparent elimination clearance, population estimate [RSE %]",[1],317 [8.25] l h^−1
same,Hill coefficient in the maturation model (auto-induction),"[1]; MMAX 1 FIX, MF50 62 FIX, reduced dataset",0.445 [43.9 ^‡]
same,decrease of relative bioavailability,[1]; concomitant efavirenz,71%
same,exposure,[1]; concomitant efavirenz,decreased
same,"LOPCL/F, effect on elimination clearance by concomitant treatment with lopinavir/ritonavir",[1],32.8%
same,"LOPCL/F, effect on elimination clearance by concomitant treatment with lopinavir/ritonavir",[1]; listed as Artemether,32.8 [21.5] %
same,decrease of relative bioavailability,[1]; concomitant nevirapine,66%
same,"MTT, mean transit time of the absorption phase, population estimate [RSE %]",[1]; three transit compartments,0.970 [6.58] h
same,terminal half-life,[2],1.5 to 2.0 h
CCCCNCC(O)c1cc(Cl)cc2c1-c1ccc(Cl)cc1/C2=C/c1ccc(Cl)cc1 (centres unmarked) [desbutyl-lumefantrine],"CL/F, apparent elimination clearance, population estimate [RSE %]",[3]; [4],489 [5.98] l h^−1
same,exposure,[3]; [5],decreased exposure
same,"LOPCL/F, effect on elimination clearance by concomitant treatment with lopinavir/ritonavir",[3],392%
same,"LOPCL/F, effect on elimination clearance by concomitant treatment with lopinavir/ritonavir",[3]; listed as Desbutyl-Lumefantrine,392 [17.6] %
same,exposure,"[3]; concomitant nevirapine, due to lower bioavailability of lumefantrine",decreased
C[C@H]1[C@@H](O)O[C@@H]2O[C@@]3(C)CC[C@H]4[C@H](C)CC[C@@H]1[C@@]24OO3 [dihydroartemisinin],"Vc/F, apparent volume of distribution of the central compartment, population estimate [RSE %]",[1],14.9 [39.8] l
same,"CL/F, apparent elimination clearance, population estimate [RSE %]",[1],160 [4.93] l h^−1
same,exposure,[1]; concomitant efavirenz,decreased
same,"LOPCL/F, effect on elimination clearance by concomitant treatment with lopinavir/ritonavir",[1],143%
same,"LOPCL/F, effect on elimination clearance by concomitant treatment with lopinavir/ritonavir",[1]; listed as Dihydroartemisinin,143 [19.7] %
same,decrease of elimination clearance,[1]; concomitant nevirapine,44%
same,"NEVCL/F, effect on elimination clearance by concomitant treatment with nevirapine",[1]; concomitant nevirapine 200 mg,−44.5 [14.5] %
same,half-life,[2],0.8 to 2.1 h
same,terminal half-life,[2]; [6],1 to 2 h
CCCCN(CCCC)CC(O)c1cc(Cl)cc2c1-c1ccc(Cl)cc1/C2=C/c1ccc(Cl)cc1 (centres unmarked) [lumefantrine],"Q/F, inter-compartment clearance, population estimate [RSE %]",[3]; [4],2.86 [19.4] l h^−1
same,"VP/F, apparent volume of distribution of the peripheral compartment, population estimate [RSE %]",[3]; [4],111 [9.14] l
same,"Vc/F, apparent volume of distribution of the central compartment, population estimate [RSE %]",[3]; [4],68.9 [27.1] l
same,"CL/F, apparent elimination clearance, population estimate [RSE %]",[3]; [4],4.77 [5.30] l h^−1
same,"EFZCL/F, effect on elimination clearance by concomitant treatment with efavirenz",[3],72.6%
same,"EFZCL/F, effect on elimination clearance by concomitant treatment with efavirenz",[3]; listed as Lumefantrine,72.6 [17.2] %
same,decrease of elimination clearance,[3]; [5],62%
same,"LOPCL/F, effect on elimination clearance by concomitant treatment with lopinavir/ritonavir",[3],−62.1 [8.48] %
same,lowering of relative bioavailability,[3]; concomitant nevirapine,25%
same,"MTT, mean transit time of the absorption, population estimate [RSE %]",[3]; one transit compartment,6.27 [21.2] h
same,elimination half-life,[2],48 to 96 h
same,"increase of exposure for a 100% dose increase (dose limited absorption, assumed in simulations)",[2],70%
same,systemic exposure relative to its metabolite desbutyl-lumefantrine,[2],85- to 300 fold
same,terminal half-life,[2]; [6],79.2 h
